Data published in patent US20230348369A1 (Cytokinetics, Inc., priority 2020, published 2023).
Where two headings read alike, the source gives them in different places.

Key:
human NAMPT = human NAMPT (Homo sapiens, UniProt P43490); assay: Human recombinant enzyme assay (NMN fluorescence biochemical assay, activation of NAMPT)
Summary of the method: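 NMN production is detected fluorometrically (Ex 355/Em 460 nm) 40 min after acetophenone, KOH and formic acid derivatization. Reactions ran 60 min at ambient temperature: 6 nM human NAMPT, nicotinamide 150 μM, PRPP 20 μM, ATP 2.5 mM, buffered at pH 7.2 with 50 mM HEPES plus DTT, CHAPS, NaCl and 100 mM MgCl2.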

endogenous NAMPT = target: T1, endogenous NAMPT (Homo sapiens, UniProt P43490); assay: Cellular NAD+ modulation assay in neuroblastoma SH-SY5Y cells; format: cell-based
T1 construct: stimulate the endogenous NAMPT in a native cellular environment; endogenous in cells; host or cells: SH-SY5Y neuroblastoma cells
Method: The compounds described herein were also assayed for their ability to stimulate the endogenous NAMPT in a native cellular environment in the cellular NAD+ modulation assay, which measures the ability of the compound to modulate cellular NAD levels. Increased levels of NAD are expected by compounds that permeate the cells and activate the catalytic activity of the endogenous NAMPT.
Neuroblastoma SH-SY5Y cells were grown in 1:1 mixture of Eagle's Minimum Essential Medium and F12 Medium, along with 10% fetal bovine serum, in a humidified incubator with an atmosphere of 95% air and 5% CO2 at 37° C. The assays were initiated by plating 20 μL of SH-SY5Y cells in culture medium with 0.1% fetal bovine serum, at a density of 5000 cells per well to a 384-well Corning™ BioCoat™ Poly-D-Lysine Multiwell Plates. The plates were incubated in the 37° C. incubators for a period of 5 hours. Compounds in DMSO were added to the plates in a volume of 120 nL using the Labcyte Echo Liquid Handlers. […] The plates are then incubated for 40 hours. 30 μL of a readout-solution containing 0.2 U/mL Diaphorase enzyme, 40 uM resazurin, 10 uM FMN, 0.8 U/mL Alcohol dehydrogenase, 3% ethanol, 0.4 mg/mL bovine serum albumin, 0.2% Triton X-100 in 100 mM Tris-HCl, 30 mM EDTA, pH 8.4. The plates were read for fluorescence (Excitation/Emission=540 nm/590 nm) using an EnVision plate reader after 60 mins of incubation at ambient temperature.

[1] = Table A, human recombinant NAMPT, NMN formation, 60 min
[2] = Table B, SH-SY5Y cells, cellular NAD levels, doxorubicin, 40 hours
[3] = Table A, human recombinant NAMPT, NMN formation, 60 min, read-out: EC50 Human
[4] = Table B, SH-SY5Y cells, cellular NAD levels, doxorubicin, 40 hours, read-out: EC50

T1 sequence (P43490 whole entry): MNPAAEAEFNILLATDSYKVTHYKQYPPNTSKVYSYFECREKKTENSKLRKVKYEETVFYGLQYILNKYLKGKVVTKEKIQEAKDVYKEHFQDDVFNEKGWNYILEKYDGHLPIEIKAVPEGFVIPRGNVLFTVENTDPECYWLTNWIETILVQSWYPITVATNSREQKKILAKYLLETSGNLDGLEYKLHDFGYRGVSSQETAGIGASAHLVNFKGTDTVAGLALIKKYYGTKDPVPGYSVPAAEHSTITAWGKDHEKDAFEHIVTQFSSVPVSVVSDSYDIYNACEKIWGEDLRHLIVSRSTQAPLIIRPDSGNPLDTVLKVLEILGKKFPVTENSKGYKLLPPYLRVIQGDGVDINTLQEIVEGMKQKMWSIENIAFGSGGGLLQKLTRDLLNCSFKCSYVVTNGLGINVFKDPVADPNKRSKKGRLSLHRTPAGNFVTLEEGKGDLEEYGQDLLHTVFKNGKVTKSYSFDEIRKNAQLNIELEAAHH
Chain of human NAMPT (P43490 whole entry): as above

Row | SMILES | AC1.4 Human (human NAMPT; [1]) [µM] | AC0.3 (endogenous NAMPT; [2]) [µM] | EC50 (human NAMPT; [3]) [nM] | EC50 (endogenous NAMPT; [4]) [nM] | EC50 (human NAMPT) [nM] | EC50 (endogenous NAMPT) [nM]
1 | N#Cc1ccccc1C(=O)NC1CC2(CC(NC(=O)NCc3ccc(Cl)cc3)C2)C1 (centres unmarked) [Compound 212, N-(6-(3-(4-chlorobenzyl)ureido)spiro[3.3]heptan-2-yl)-2-cyanobenzamide] | 7.2 | 0.3 |  |  | 6000 | 100
2 | Cc1ccc(C(=O)N2CC3(CC(NC(=O)NCc4ccc(=O)[nH]c4)C3)C2)cc1 [Compound 214, 1-(2-(4-methylbenzoyl)-2-azaspiro[3.3]heptan-6-yl)-3-((6-oxo-1,6-dihydropyridin-3-yl)methyl)urea] | 10.5 | >20.1 | 36700 |  |  | 
3 | COc1ccc(CNC(=O)N[C@H]2C[C@]3(C2)C[C@H](C(=O)N2CCCc4ccccc42)C3)cc1 (some centres unmarked) [Compound 229, 1-(4-methoxy-benzyl)-3-(6-(1,2,3,4-tetrahydro-quinoline-1-carbonyl)spiro[3.3]heptan-2-yl)urea] |  |  | 1200 | 200 |  | 
4 | CN(C(=O)CCCCCNC(=O)NCc1ccc(Cl)cc1)c1ccccc1 [Compound 268, 6-(3-(4-chlorobenzyl)ureido)-N-methyl-N-phenylhexanamide] | 0.3 | 0.1 | 500 | 100 |  | 
5 | CN(C(=O)CCCCCNC(=O)NCc1cnco1)c1ccccc1F [Compound 288, N-(2-fluorophenyl)-N-methyl-6-(3-(oxazol-5-ylmethyl)ureido)hexanamide] | 0.3 | 0.3 | 3700 | 800 |  | 
6 | O=C(NCc1ccc(Cl)cc1)NC1CC2(CC(Cc3ccncc3)C2)C1 (centres unmarked) [Compound 329, 1-(4-chlorobenzyl)-3-(6-(pyridin-4-ylmethyl)spiro[3.3]heptan-2-yl)urea] | 62.5 | 0.1 | > 62500 | 100 |  | 
7 | COc1ccc(CNC(=O)NC2CC3(CC(Cc4ccncc4)C3)C2)cc1 (centres unmarked) [Compound 330, 1-(4-methoxybenzyl)-3-(6-(pyridin-4-ylmethyl)spiro[3.3]heptan-2-yl)urea] | 0.1 | 0.5 | 3900 | 8100 |  | 
8 | Cc1ncccc1CC1CC2(C1)CC(NC(=O)NCc1ccc(Cl)cc1)C2 (centres unmarked) [Compound 346, 1-(4-chlorobenzyl)-3-(6-((2-methylpyridin-3-yl)methyl)spiro[3.3]heptan-2-yl)urea] | 62.5 | 0.1 | > 62500 | 100 |  | 

Continued by falling EC50 (human NAMPT; [3]), values first:

Row | AC1.4 Human (human NAMPT; [1]) [µM] | AC0.3 (endogenous NAMPT; [2]) [µM] | EC50 (human NAMPT; [3]) [nM] | EC50 (endogenous NAMPT; [4]) [nM] | SMILES | EC50 (human NAMPT) [nM] | EC50 (endogenous NAMPT) [nM]
9 | 0.1 | 0.3 | 4400 | 1000 | CN(C(=O)CCCCCNC(=O)NCc1cn[nH]c1)c1ccccc1F [Compound 287, 6-(3-((1H-pyrazol-4-yl)methyl)ureido)-N-(2-fluorophenyl)-N-methylhexanamide] |  | 
10 |  |  | 2700 | 900 | Cc1ccc(C(=O)NC[C@H]2C[C@]3(C2)C[C@@H](NC(=O)NCc2ccc(Cl)cc2)C3)cn1 (some centres unmarked) [Compound 249, N-((6-(3-(4-chlorobenzyl)ureido)spiro[3.3]heptan-2-yl)methyl)-6-methyl-nicotinamide] |  | 
11 | 0.1 | 0.2 | 2300 | 300 | COc1ccc(CNC(=O)NCCCCC2CCN(C(=O)c3ccccc3C)CC2)cc1 [Compound 322, 1-(4-methoxybenzyl)-3-(4-(1-(2-methylbenzoyl)piperidin-4-yl)butyl)urea] |  | 
12 | 1.0 | 0.3 | 2000 | 300 | O=C(NCCCCC(=O)N1CCCc2ccccc21)NCc1ccc(Cl)cc1 [Compound 256, 1-(4-chlorobenzyl)-3-(5-(3,4-dihydroquinolin-1(2H)-yl)-5-oxopentyl)urea] |  | 
13 | 0.1 | 0.3 | 1500 | 300 | [2H]C([2H])(CCCC1CCN(C(=O)c2ccccc2)CC1)NC(=O)NCc1cnco1 [Compound 293, 1-(4-(1-benzoylpiperidin-4-yl)butyl-1,1-d2)-3-(oxazol-5-ylmethyl)urea] |  | 
